Results as given in US5985603A, “P2x receptor DNA and protein sequence” (Glaxo Group Limited, priority 1994, dated 1999).
Structures can show the parent of a compound that is named as a salt.

Columns and labels:
[1] = molecular target: T1, rat vas/human bladder P2X cDNA clone (Homo sapiens, UniProt P51575); test: functional properties of cloned P2X receptors (electrical recordings): bladder; type: cell-based; settings: Table A; for Ca++ block, bladder: extracellular calcium 30 mM in text
T1 construct: expressed in transfected cells; host or cells: HEK293 cells (oocytes are also named for the functional characterisation)
T1 sequence (P51575 1-399): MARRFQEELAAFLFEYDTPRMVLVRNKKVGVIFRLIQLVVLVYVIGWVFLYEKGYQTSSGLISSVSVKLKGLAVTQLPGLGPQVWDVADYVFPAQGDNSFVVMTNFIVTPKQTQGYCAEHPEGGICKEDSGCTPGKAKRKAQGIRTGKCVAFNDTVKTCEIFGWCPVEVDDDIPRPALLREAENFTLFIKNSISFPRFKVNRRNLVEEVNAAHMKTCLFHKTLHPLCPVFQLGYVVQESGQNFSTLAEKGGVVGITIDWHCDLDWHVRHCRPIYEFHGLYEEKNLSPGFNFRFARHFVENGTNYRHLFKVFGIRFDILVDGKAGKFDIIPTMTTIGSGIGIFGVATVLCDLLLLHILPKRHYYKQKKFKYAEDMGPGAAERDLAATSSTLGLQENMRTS
Description: DNA concentration used was 1 mg/2 ml medium placed into a 35 mm petri dish containing four 11 mm diameter coverslips on which HEK cells were placed at 10,000 cells per coverslip. […] Currents were recorded from HEK 293 cells using whole-cell recording methods and the AXOPATCH™ 200 amplifier (Axon Instruments); patch pipettes (5 M.OMEGA.) contained (mM) Cs or K aspartate 140, NaCl 5, EGTA 11, HEPES 5. […] All recordings performed at room temperature. Data acquisition and analysis were performed using pCLAMP™ and AXOGRAPH™ software (Axon Instruments). […] ATP was applied by U-tube typically for 1 s; data was sampled at 5 kHz in 2 s segments beginning 300 ms prior to onset of agonist (ATP) application and filtered at 1 kHz.

[2] = molecular target: T2, rat superior cervical ganglion P2X receptor (clone 3) (Rattus norvegicus, UniProt P51577); test: functional properties of cloned P2X receptors (electrical recordings): clone 3; type: cell-based; settings: for Ca++ block, clone 3: extracellular calcium 30 mM in text
T2 construct: The insert appeared to be a full length cDNA; expressed in transfected cells; host or cells: HEK293 cells transfected with pcDNA3 construct p464 (also oocytes injected with in vitro transcribed RNA)
T2 sequence (P51577 1-388): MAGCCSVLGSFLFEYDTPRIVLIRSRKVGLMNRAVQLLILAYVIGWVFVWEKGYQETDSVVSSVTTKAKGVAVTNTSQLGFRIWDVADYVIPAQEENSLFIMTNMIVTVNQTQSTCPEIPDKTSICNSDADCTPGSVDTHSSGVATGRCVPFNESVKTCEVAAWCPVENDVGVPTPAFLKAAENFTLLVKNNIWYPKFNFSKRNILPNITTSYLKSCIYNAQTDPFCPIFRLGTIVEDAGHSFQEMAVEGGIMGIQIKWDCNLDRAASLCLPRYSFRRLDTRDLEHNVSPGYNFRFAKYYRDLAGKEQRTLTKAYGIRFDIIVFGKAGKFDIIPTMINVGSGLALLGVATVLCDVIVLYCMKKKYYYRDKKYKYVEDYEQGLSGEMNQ
Description: (§1) HEK 293 cells were transfected by the lipofectin method (Felgner et al., Proc. Nat'l. Acad. Sci. USA 84 7413-7417 (1987)) with P2X -plasmid. DNA concentration used was 1 mg/2 ml medium placed into a 35 mm petri dish containing four 11 mm diameter coverslips on which HEK cells were placed at 10,000 cells per coverslip. […] Currents were recorded from HEK 293 cells using whole-cell recording methods and the AXOPATCH™ 200 amplifier (Axon Instruments); patch pipettes (5 M.OMEGA.) contained (mM) Cs or K aspartate 140, NaCl 5, EGTA 11, HEPES 5. The external solution was (mM) NaCl 150, KCl2, CaCl2 2, MgCl2 1, HEPES 5 and glucose 11; the pH and osmolarity of both solutions were maintained at 7.3 and 305 mosmol/l respectively. All recordings performed at room temperature. Data acquisition and analysis were performed using pCLAMP™ and AXOGRAPH™ software (Axon Instruments). […] The pH and osmolarity of the solutions were 7.4 and 295 mosmol/l respectively. For single channel measurements, a […]™ 500 amplifier and outside-out recording methods were used (Adelman et al., Neuron 9 209-216 (1992)). Wax-coated patch pipettes (5-10 M.OMEGA.) contained (mM) K-gluconate 115, HEPES 5, BAPTA 5 and MgCl2 0.5, external solution was 96 mM NaCl, 2 mM KCl, 1.8 mM CaCl2, 1 mM MgCl2, 5 mM Hepes pH 7.6, and 5 mM sodium pyruvate.
(§2) The functional characterisation of the clone illustrated in FIG. 2 (referred to herein as clone 3) was carried out by electrical recordings from transfected HEK293 cells and from oocytes injected with the in vitro transcribed RNA, as described in Example 4 for the rat vas deferens P2X receptor. Table A summarizes the main properties of clone 3 as compared to those of rat vas/human bladder cDNA clone, and the PC12 cDNA clone (provided by David Julius and Tony Brake of the University of California at San Francisco).

PC12 P2X receptor = molecular target: T3, PC12 P2X receptor (Rattus norvegicus, UniProt P49653); test: functional properties of cloned P2X receptors (electrical recordings): PC12; type: cell-based; settings: Table A; for Ca++ block, PC12: extracellular calcium 30 mM in text
T3 construct: host or cells: HEK293 cells (oocytes are also named for the functional characterisation of clone 3)
T3 sequence (P49653 1-472): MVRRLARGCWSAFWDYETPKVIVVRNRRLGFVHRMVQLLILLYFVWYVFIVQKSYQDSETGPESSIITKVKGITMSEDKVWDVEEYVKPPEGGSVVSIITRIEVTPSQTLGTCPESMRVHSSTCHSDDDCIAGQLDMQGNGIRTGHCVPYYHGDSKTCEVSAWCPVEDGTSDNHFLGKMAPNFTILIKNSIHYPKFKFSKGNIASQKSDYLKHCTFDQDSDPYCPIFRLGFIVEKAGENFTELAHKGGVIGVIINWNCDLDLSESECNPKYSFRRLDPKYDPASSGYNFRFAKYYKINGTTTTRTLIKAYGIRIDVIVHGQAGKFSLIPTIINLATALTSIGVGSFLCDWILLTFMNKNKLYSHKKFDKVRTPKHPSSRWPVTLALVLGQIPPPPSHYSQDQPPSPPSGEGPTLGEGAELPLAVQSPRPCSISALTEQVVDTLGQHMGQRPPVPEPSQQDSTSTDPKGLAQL
Description: as §1, §2

hP2X mRNA = test: induction of hP2X mRNA in HL60 cells by Northern blot; type: cell-based, human; settings: 1.8 and 2.6 kb bands
Description: HL60 cells (human promyelocytes ATCC CCL240) were passaged twice weekly in RPMI-1640 supplemented with 25 mnM HEPES, 2 mM Glutamax II, and 10% heat-inactivated fetal calf serum (GIBCO BRL) . For each experiment 33×10^6 cells were resuspended at 2.5×10^5 cells/ml in medium containing either phorbol mystate acetate (100 nM), 1. 1% DMSO, or dibutyryl cAMP (200 uM) (SIGMA) for the indicated times.
PolyA^+ RNAs were obtained from Clontech Laboratories Inc. (Palo Alto) except for the urinary bladder and HL60 mRNA which were prepared as described (Valera et al (1994)--supra) . Samples were quantified by measuring the O.D. at 260 nm, and by staining the membrane with methylene blue. The RNA were fractionated on a 1% agarose--6% formaldehyde gel and electroblotted to a non-charged nylon membrane (BDH). Prehybridisation at 68° C. was performed for 6 hours in hybridisation buffer (50% formamide, 5× SSC, 2% blocking buffer (Boehringer Mannheim), 0.1%6 laurolylsarcosine, 0.02% SDS). Hybridisation was overnight at 68° C. in fresh hybridisation buffer with a digoxigenin-UTP labelled riboprobe (100 ng/ml) corresponding to the entire hP2 × sequence. The membrane was washed at 68° C.; twice in 2× SSC+0.1% SDS, and twice in 0.1× SSC+0.1% SDS. Chemiluminescent detection of hybridisation was carried at room temperature as follows: the membrane was rinsed 5 min in buffer B1 (0.1 M maleic acid, 0.15 M NaCl, pH 7.5), saturated for 1 hour in 1% blocking buffer (B2), incubated 30 min with anti-digoxigenin-antibody alkaline phosphatase conjugated (750 u/ml, Boehringer Mannheim) diluted 1:15000 in B2, washed in B1+0.30% tween 20 (1× 5 min, 1× 15 min, 1× 1 h), equilibrated for 5 min in buffer B3 (0.1 M Tris HCl pH 9.5, 0.1 M NaCl, 50 mM MgCl2), incubated 45-60 sec in lumigen PPD (Boehringer Mannheim) diluted 1:100 in B3. The humid membrane was sealed in a plastic bag, incubated 15 min at 37° C., and exposed 15 to 20 min to Hyperfilm-ECL (Amersham). […]

P2X-purinoceptor = settings: cited from earlier work
hP2X = molecular target: T4, hP2X (Homo sapiens, UniProt P51575); test: inward currents evoked by purinoceptor agonists in Xenopus oocytes expressing hP2X; type: cell-based; settings: for full agonist activity: concentration-response curves; for agonist profile (rank order): oocytes expressing hP2X; for relative potency: relative to ATP, from EEC50
T4 construct: expressed in transfected cells; host or cells: Xenopus oocytes injected with in vitro transcribed RNA
T4 sequence (P51575 1-399): T1 sequence (P51575 1-399)
Description: Human urinary bladder P2X cDNA, subcloned into the pBKCMV expression vector, was linearized with Notl, and transcribed in vitro with T3 polymerase in the presence of cap analogue m7G(5')ppp(5')G. Defolliculated Xenopus oocytes (Bertrand et al, Electrophysiology of neuronal nicotinic acetylcholine receptors expressed in Xenopus oocytes following nuclear injection of genes or cDNAs Meth Neurosci 4: 174-193 (1991)) were injected with 50 ng of human P2X in vitro transcribed RNA, and incubated at 18° C. for 2-6 days in the ND96 solution (mM): NaCl96, KCl2, MgCl2 1, CaCl2 2, sodium pyruvate 5, HEPES 5, ph 7.6-7.5, penicillin (10 U/ml), and streptomycin (10 μg/ml).
Oocytes were placed in a 1 ml chamber and superfused at 2-3 ml/min with ND96 solution with 0.1 mM BaCl2 replacing the 2 mM CaCl2 to prevent activation of endogenous calcium-activated chloride currents (Barish, A transient calcium-dependent chloride current in the immature Xenopus oocytes J Physiol 342: 309-325 (1983)). Currents were measured using a two-electrode voltage-clamp amplifier (Geneclamp Axon Instruments)at a holding potential of -60 mV. Microelectrodes were filled with 3 M KCl (0.5-2 M.OMEGA.). Data were collected using PClamp software (Axon Instruments). […] Antagonists were applied both in the superfusate and together with ATP in the U-tube solution.
Concentration response curves for purinoceptor agonists were fitted with a Hill slope of 1. […] Data are presented throughout as mean ± SEM for a given number of oocytes.

[3] = listed as Extracellular calcium

[Ca+2] [Ca^++, calcium]
Ca++ block, bladder [1]: none | Ca++ block, bladder [1, 3]: does not block current | Ca++ block, clone 3 ([2]; Table A): intermediate | Ca++ block, clone 3 ([2]; Table A, listed as Extracellular calcium): intermediate in sensitivity | Ca++ block, PC12 (PC12 P2X receptor): very strong | Ca++ block, PC12 (PC12 P2X receptor; [3]): inhibits the inward current

C[S+](C)[O-] [DMSO]
induction of P2X mRNA in HL60 cells (hP2X mRNA): produced an increase in P2X mRNA

CCCC(=O)Nc1ncnc2c1ncn2[C@@H]1O[C@@H]2COP(=O)(O)O[C@H]2[C@H]1OC(=O)CCC [dibutryl cAMP, dibutyryl cAMP]
induction of P2X mRNA in HL60 cells (hP2X mRNA): produced an increase in P2X mRNA

Nc1ncnc2c1ncn2[C@@H]1O[C@H](COP(=O)(O)CP(=O)(O)OP(=O)(O)O)[C@@H](O)[C@H]1O [α,β-meATP, α,β-methylene ATP lithium salt]
EC50 ([1]; parameter (EC50) not given, read-out: agonist profile, bladder): 3 µM | EC50 ([2]; Table A, parameter (EC50) not given, read-out: agonist profile, clone 3): > 100 µM | agonist action ([2]; clone 3 (FIG. 14)): little or no agonist action | EC50 (PC12 P2X receptor; parameter (EC50) not given, read-out: agonist profile, PC12): > 100 µM | agonist potency order in whole tissue studies (P2X-purinoceptor): α,β,-meATP >>2MeSATP≥ATP | EC50 (hP2X): 3.6 ± 1.6 µM | full agonist activity (hP2X): full agonists | agonist profile (rank order) (hP2X): 2MeSATP≥ATP>α,β,-meATP | relative potency (hP2X): 0.23

CCCCCCCCCCCCCC(=O)O[C@@H]1[C@@H](C)[C@@]2(O)[C@@H](C=C(CO)C[C@]3(O)C(=O)C(C)=C[C@@H]23)[C@@H]2C(C)(C)[C@]12OC(C)=O [phorbol diesters, phorbol mystate acetate]
induction of P2X mRNA in HL60 cells (hP2X mRNA): produced an increase in P2X mRNA

CSc1nc(N)c2ncn([C@@H]3O[C@H](COP(=O)(O)OP(=O)(O)OP(=O)(O)O)[C@@H](O)[C@H]3O)c2n1 [2MeSATP, 2-MethylthioATP tetra sodium salt]
agonist potency order in whole tissue studies (P2X-purinoceptor): α,β,-meATP >>2MeSATP≥ATP | EC50 (hP2X): 0.6 ± 0.1 µM | comparison of concentration-effect curves (hP2X; ATP, 2MeSATP and 2-chloro-ATP): superimposable | full agonist activity (hP2X): full agonists | agonist profile (rank order) (hP2X): 2MeSATP≥ATP>α,β,-meATP | relative potency (hP2X): 1.36
